Results: patent publication US11472805B2, “Tricyclic compounds and their use as phosphodiesterase inhibitors” (Pfizer Inc., priority 2015, dated 2022)
pIC50: −log10 of the molar value. Where two headings read alike, the source gives them in different places.

What was measured:
Assay type in all cases: biochemical
Human PDE4A3 = Human PDE4A3 (Homo sapiens (Human), UniProt P27815); assay: PDE4A3 Scintillation Proximity Assay (SPA), inhibition of enzyme activity; conditions: read-out: Human PDE4A FL
In short: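 Recombinant human PDE4A3 expressed in insect cells, purified via Ni-NTA, anti-FLAG and size exclusion. SPA run 30 min at 25 °C in 50 mM Tris pH 7.5, 1.3 mM MgCl2, 0.01% Brij with 1 μM cAMP (20 nM 3H-cAMP), […], ~20% substrate conversion; stopped with yttrium silicate beads.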

Human PDE4B1 = Human PDE4B1 (Homo sapiens (Human), UniProt Q07343, S133E/S654A/S659A/S661A); assay: PDE4B1 Scintillation Proximity Assay (SPA), inhibition of enzyme activity; conditions: read-out: Human PDE4B FL
In short: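 His-tagged enzyme from baculovirus-infected insect cells, Ni-NTA purified. SPA with 1 μM cAMP (20 nM 3H-cAMP tracer) in 50 mM Tris pH 7.5, 1.3 mM MgCl2, 0.01% Brij, […] PDE4B enzyme for ~20% substrate conversion; 30 min at 25 °C, stopped with yttrium silicate beads, read after 8 h settling.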

Human PDE4C1 = Human PDE4C1 (Homo sapiens (Human), UniProt Q08493); assay: PDE4C1 Scintillation Proximity Assay (SPA), inhibition of enzyme activity; conditions: read-out: Human PDE4C FL
In short: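 Recombinant insect-cell-expressed human PDE4C1 […] in 50 mM Tris pH 7.5, 1.3 mM MgCl2, 0.01% Brij with 1 μM cAMP (3H-cAMP tracer), ~20% substrate conversion, inhibitor concentration range. Incubated 30 min at 25° C; stopped with yttrium silicate SPA beads, read by scintillation after 8 h settling.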

human PDE4D3 = human PDE4D3 (Homo sapiens (Human), UniProt Q08499); assay: PDE4D3 Scintillation Proximity Assay (SPA), inhibition of enzyme activity; conditions: read-out: Human PDE4D FL
In short: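 His-tagged human PDE4D3 (aa 50–672), expressed in insect cells, hydrolysed 1 μM cAMP (3H tracer plus cold) for 30 min at 25° C in 50 mM Tris pH 7.5, 1.3 mM MgCl2 and 0.01% Brij. Enzyme level was set for ~20% conversion. Product was read by yttrium silicate SPA beads after 8 h settling.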

[1] = Table 10, geometric mean of 2-9 determinations unless otherwise indicated
[2] = Table 9, geometric mean of 2-9 determinations unless otherwise indicated

Chain of Human PDE4A3 (P27815 other isoform, or with tags, fused parts or gaps): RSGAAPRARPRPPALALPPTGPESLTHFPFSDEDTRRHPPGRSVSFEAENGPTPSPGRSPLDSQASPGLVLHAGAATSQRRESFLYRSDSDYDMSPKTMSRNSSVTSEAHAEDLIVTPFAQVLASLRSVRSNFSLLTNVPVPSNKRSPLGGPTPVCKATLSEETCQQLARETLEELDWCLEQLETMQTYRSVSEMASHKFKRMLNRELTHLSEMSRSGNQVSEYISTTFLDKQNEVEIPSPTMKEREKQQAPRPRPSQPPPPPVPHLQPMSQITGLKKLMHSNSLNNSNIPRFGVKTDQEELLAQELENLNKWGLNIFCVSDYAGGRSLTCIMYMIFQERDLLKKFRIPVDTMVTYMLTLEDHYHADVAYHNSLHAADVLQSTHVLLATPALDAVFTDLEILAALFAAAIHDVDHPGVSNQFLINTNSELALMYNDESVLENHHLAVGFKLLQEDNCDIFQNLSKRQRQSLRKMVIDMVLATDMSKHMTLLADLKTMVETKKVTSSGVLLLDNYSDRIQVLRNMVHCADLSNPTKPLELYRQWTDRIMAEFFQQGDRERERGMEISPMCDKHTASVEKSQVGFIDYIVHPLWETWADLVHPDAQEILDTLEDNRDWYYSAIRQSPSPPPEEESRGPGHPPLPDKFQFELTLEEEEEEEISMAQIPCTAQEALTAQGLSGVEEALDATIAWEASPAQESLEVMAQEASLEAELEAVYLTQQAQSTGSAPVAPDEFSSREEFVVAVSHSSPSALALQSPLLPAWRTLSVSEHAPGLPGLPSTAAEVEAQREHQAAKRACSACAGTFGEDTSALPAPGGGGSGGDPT
Chain of Human PDE4B1 (Q07343 122-736 S133E/S654A/S659A/S661A): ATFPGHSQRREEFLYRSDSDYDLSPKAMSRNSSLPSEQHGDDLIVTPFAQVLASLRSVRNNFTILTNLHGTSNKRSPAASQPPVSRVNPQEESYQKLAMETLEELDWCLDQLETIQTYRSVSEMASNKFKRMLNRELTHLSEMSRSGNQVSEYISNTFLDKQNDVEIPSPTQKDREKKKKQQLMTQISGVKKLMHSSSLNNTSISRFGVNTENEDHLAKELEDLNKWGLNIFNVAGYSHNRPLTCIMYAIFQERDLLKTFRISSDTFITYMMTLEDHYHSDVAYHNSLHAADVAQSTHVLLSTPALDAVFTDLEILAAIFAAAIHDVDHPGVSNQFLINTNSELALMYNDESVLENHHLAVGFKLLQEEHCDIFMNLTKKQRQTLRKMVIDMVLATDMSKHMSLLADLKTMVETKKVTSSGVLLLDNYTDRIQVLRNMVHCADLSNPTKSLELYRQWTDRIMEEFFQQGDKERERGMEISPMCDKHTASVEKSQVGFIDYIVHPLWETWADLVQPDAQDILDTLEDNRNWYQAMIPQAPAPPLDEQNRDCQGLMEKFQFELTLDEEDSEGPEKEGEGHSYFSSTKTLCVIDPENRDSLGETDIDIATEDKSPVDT
Chain of Human PDE4C1 (Q08493 2-712): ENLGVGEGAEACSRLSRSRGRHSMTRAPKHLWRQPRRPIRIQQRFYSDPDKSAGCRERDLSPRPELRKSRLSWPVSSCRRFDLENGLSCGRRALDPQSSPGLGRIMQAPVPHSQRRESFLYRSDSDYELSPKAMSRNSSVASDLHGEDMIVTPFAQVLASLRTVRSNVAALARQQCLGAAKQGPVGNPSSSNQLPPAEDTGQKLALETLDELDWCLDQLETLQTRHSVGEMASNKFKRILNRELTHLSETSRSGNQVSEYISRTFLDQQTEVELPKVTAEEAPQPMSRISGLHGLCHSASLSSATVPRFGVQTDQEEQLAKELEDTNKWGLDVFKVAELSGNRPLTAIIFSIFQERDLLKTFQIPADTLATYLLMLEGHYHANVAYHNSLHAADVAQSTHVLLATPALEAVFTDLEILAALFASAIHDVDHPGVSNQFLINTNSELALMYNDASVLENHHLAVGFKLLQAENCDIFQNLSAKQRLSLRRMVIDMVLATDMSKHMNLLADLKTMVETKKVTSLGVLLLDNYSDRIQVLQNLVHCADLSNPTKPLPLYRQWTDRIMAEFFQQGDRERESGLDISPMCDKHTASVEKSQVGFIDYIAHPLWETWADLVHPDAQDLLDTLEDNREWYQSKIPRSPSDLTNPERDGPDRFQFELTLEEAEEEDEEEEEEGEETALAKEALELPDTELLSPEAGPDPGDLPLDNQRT
Chain of human PDE4D3 (Q08499 186-808): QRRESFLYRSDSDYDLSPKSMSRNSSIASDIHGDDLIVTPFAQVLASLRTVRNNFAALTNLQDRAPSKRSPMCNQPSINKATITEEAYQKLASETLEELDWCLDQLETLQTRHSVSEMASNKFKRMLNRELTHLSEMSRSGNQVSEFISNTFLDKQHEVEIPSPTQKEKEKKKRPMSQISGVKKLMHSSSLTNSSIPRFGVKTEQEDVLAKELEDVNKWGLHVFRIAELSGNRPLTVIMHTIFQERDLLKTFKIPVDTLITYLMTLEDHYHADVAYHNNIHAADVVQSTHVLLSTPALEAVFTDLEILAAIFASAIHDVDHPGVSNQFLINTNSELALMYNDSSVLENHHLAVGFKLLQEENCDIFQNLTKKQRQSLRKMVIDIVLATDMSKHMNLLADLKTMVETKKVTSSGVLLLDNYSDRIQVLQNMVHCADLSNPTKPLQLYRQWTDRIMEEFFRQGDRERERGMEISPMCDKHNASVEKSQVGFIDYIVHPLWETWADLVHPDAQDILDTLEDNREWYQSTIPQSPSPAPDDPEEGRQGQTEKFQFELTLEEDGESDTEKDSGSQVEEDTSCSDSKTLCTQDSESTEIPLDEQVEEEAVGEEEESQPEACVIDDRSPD

SMILES	pIC50 (Human PDE4A3; [1])	pIC50 (Human PDE4B1; [1])	pIC50 (Human PDE4C1; [1])	pIC50 (human PDE4D3; [1])	pIC50 (Human PDE4A3; [2])	pIC50 (Human PDE4B1; [2])	pIC50 (Human PDE4C1; [2])	pIC50 (human PDE4D3; [2])
CN(C)S(=O)(=O)c1cccc(-c2c3n(c4cccnc24)CCN(C2CC2)C3=O)c1 [Example 85, 3-(8-Cyclopropyl-9-oxo-6,7,8,9-tetrahydropyrido[2′,3′:4,5]pyrrolo[1,2-a]pyrazin-10-yl)-N,N-dimethylbenzenesulfonamide]	6.60	6.36	5.30	6.14	–	–	–	–
N#Cc1ccc(-c2c3n(c4cccnc24)CCN(C2CC2)C3=O)cn1 [Example 26, 5-(8-Cyclopropyl-9-oxo-6,7,8,9-tetrahydropyrido[2′,3′:4,5]pyrrolo[1,2-a]pyrazin-10-yl)pyridine-2-carbonitrile]	–	–	–	–	8.09	8.53	7.83	6.86
Cc1ccc(-c2c3ncccc3n3ccn(C4CC4)c(=O)c23)cc1 [Example 13, 8-Cyclopropyl-10-(4-methylphenyl)pyrido[2′,3′:4,5]pyrrolo[1,2-a]pyrazin-9(8H)-one]	–	–	–	–	8.73	8.57	8.18	6.74
Cc1nc(-c2c3n(c4cccnc24)CCN(C2CC2)C3=O)cs1 [Example 88, 8-Cyclopropyl-10-(2-methylthiazol-4-yl)-7,8-dihydropyrido[2′,3′:4,5]pyrrolo[1,2-a]pyrazin-9(6H)-one]	5.09	4.96	5.07	4.79	–	–	–	–
N#Cc1ccc(-c2c3n(c4cccnc24)CC2CCCN2C3=O)cc1 (stereo not shown) [Example 61, 4-(11-Oxo-6a,7,8,9-tetrahydro-6H,11H-pyrido[2′,3′:4,5]pyrrolo[1,2-a]pyrrolo[1,2-d]pyrazin-12-yl)benzonitrile]	–	–	–	–	7.45	7.41	7.22	5.79
Cc1ncc(-c2c3n(c4cccnc24)CCN(C2CC2)C3=O)cn1 [Example 21, 8-Cyclopropyl-10-(2-methylpyrimidin-5-yl)-7,8-dihydropyrido[2′,3′:4,5]pyrrolo[1,2-a]pyrazin-9(6H)-one]	–	–	–	–	8.07	7.12	6.88	5.36
O=C1c2c(-c3ccc(Cl)cc3)c3ncsc3n2CCN1C1CC1 [Example 27, 9-(4-Chlorophenyl)-7-cyclopropyl-6,7-dihydro[1,3]thiazolo[4′,5′:4,5]pyrrolo[1,2-a]pyrazin-8(5H)-one]	–	–	–	–	8.64	8.52	8.04	6.36
O=C1c2c(-c3ccc(Cl)cc3F)c3ncccc3n2CCN1C1CC1 [Example 47, 10-(4-Chloro-2-fluorophenyl)-8-cyclopropyl-7,8-dihydropyrido[2′,3′:4,5]pyrrolo[1,2-a]pyrazin-9(6H)-one]	–	–	–	–	8.70	8.94	8.54	6.85
N#Cc1ccc(-c2c3ncccc3n3ccn(C4CC4)c(=O)c23)cc1 [Example 70, 4-(8-Cyclopropyl-9-oxo-8,9-dihydropyrido[2′,3′:4,5]pyrrolo[1,2-a]pyrazin-10-yl)benzonitrile]	–	–	–	–	8.55	8.57	8.07	6.97
Cc1cc(C#N)c(F)cc1-c1c2n(c3scnc13)CCN(C1CC1)C2=O [Example 28, 4-(7-Cyclopropyl-8-oxo-5,6,7,8-tetrahydro[1,3]thiazolo[4′,5′:4,5]pyrrolo[1,2-a]pyrazin-9-yl)-2-fluoro-5-methylbenzonitrile]	–	–	–	–	8.41	8.67	7.68	7.07
Cc1cc(F)ccc1-c1c2n(c3cccnc13)CCN(C1CC1)C2=O [Example 49, 8-Cyclopropyl-10-(4-fluoro-2-methylphenyl)-7,8-dihydropyrido[2′,3′:4,5]pyrrolo[1,2-a]pyrazin-9(6H)-one]	–	–	–	–	8.57	8.24	8.03	6.40
Cn1ncc(Cl)c1-c1c2n(c3cccnc13)CCN(C1CC1)C2=O [Example 93, 10-(4-Chloro-1-methyl-1H-pyrazol-5-yl)-8-cyclopropyl-7,8-dihydropyrido[2′,3′:4,5]pyrrolo[1,2-a]pyrazin-9(6H)-one]	4.62	< 4.61	5.16	< 4.52	–	–	–	–
O=C1c2c(-c3ccc(Cl)cc3)c3ncccc3n2CCN1C1CC1 [Example 2, 10-(4-Chlorophenyl)-8-cyclopropyl-7,8-dihydropyrido[2′,3′:4,5]pyrrolo[1,2-a]pyrazin-9(6H)-one]	–	–	–	–	> 9.00	> 9.38	8.40	7.12
O=C1c2c(-c3ccc(Cl)cc3)c3ncncc3n2CCN1C1CC1 [Example 25, 10-(4-Chlorophenyl)-8-cyclopropyl-7,8-dihydropyrazino[1′,2′:1,5]pyrrolo[3,2-d]pyrimidin-9(6H)-one]	–	–	–	–	7.60	7.32	7.00	5.75
O=C1c2c(-c3ccc(F)cc3)c3ncccc3n2CCN1C1CC1 [Example 23, 8-Cyclopropyl-10-(4-fluorophenyl)-7,8-dihydropyrido[2′,3′:4,5]pyrrolo[1,2-a]pyrazin-9(6H)-one]	–	–	–	–	7.89	8.50	7.09	6.49
Cc1ccc(-c2c3n(c4cccnc24)CCN(C2CC2)C3=O)cc1 [Example 20, 8-Cyclopropyl-10-(4-methylphenyl)-7,8-dihydropyrido[2′,3′:4,5]pyrrolo[1,2-a]pyrazin-9(6H)-one]	–	–	–	–	8.60	8.31	7.94	6.33
COc1ccc(-c2c3n(c4cccnc24)CCN(C2CC2)C3=O)cc1F [Example 45, 8-Cyclopropyl-10-(3-fluoro-4-methoxyphenyl)-7,8-dihydropyrido[2′,3′:4,5]pyrrolo[1,2-a]pyrazin-9(6H)-one]	–	–	–	–	8.80	8.24	8.10	6.55
O=C1c2c(-c3ccc(Cl)cc3)c3ncccc3n2CC2CCN12 (single isomer, unassigned) [Example 69]	–	–	–	–	8.05	7.79	7.61	6.16
Cc1cc(N2CCn3c(c(-c4ccc(Cl)cc4)c4ncccc43)C2=O)no1 [Example 57, 10-(4-Chlorophenyl)-8-(5-methyl-1,2-oxazol-3-yl)-7,8-dihydropyrido[2′,3′:4,5]pyrrolo[1,2-a]pyrazin-9(6H)-one]	–	–	–	–	8.46	8.42	7.97	7.42
O=C1c2c(-c3ccccc3)c3ncccc3n2CCN1C1CC1 [Example 42, 8-Cyclopropyl-10-phenyl-7,8-dihydropyrido[2′,3′:4,5]pyrrolo[1,2-a]pyrazin-9(6H)-one]	–	–	–	–	7.91	7.63	7.27	5.98
Cc1ccc(-c2c3n(c4cccnc24)CCN(C2CC2)C3=O)c(C)c1 [Example 65, 8-Cyclopropyl-10-(2,4-dimethylphenyl)-7,8-dihydropyrido[2′,3′:4,5]pyrrolo[1,2-a]pyrazin-9(6H)-one]	–	–	–	–	8.25	8.17	7.86	6.32
Cc1ccc(-c2c3ncccc3n3ccn(C4CC4)c(=O)c23)c(C)c1 [Example 66, 8-Cyclopropyl-10-(2,4-dimethyl-phenyl)pyrido[2′,3′:4,5]pyrrolo[1,2-a]pyrazin-9(8H)-one]	–	–	–	–	8.27	8.16	7.78	6.34
Cc1ccc(-c2c3n(c4cccnc24)CCN(C2CC2)C3=O)cc1C [Example 33, 8-Cyclopropyl-10-(3,4-dimethylphenyl)-7,8-dihydropyrido[2′,3′:4,5]pyrrolo[1,2-a]pyrazin-9(6H)-one]	–	–	–	–	8.31	8.22	7.95	6.30
O=C1c2c(-c3cc(F)c(Cl)cc3F)c3c(n2CCN1C1CC1)CCCO3 [Example 77, 10-(4-Chloro-2,5-difluorophenyl)-8-cyclopropyl-3,4,7,8-tetrahydro-2H-pyrano[2′,3′:4,5]pyrrolo[1,2-a]pyrazin-9(6H)-one]	–	–	–	–	9.00	9.08	8.23	7.25
O=C1c2c(-c3ccc(Cl)cc3)c3cccnc3n2CCN1C1CC1 [Example 9, 5-(4-Chlorophenyl)-7-cyclopropyl-8,9-dihydropyrido[3′,2′: 4,5]pyrrolo[1,2-a]pyrazin-6(7H)-one]	–	–	–	–	6.89	6.53	6.90	5.09
